Source: article PMC11492252 (Heliyon, 2024)

Key:
[1] = test system: Candida albicans (C. albicans); assay: Antifungal MIC, broth microdilution; assay type: cell-based
[2] = test system: Escherichia coli (E. coli); assay: Antimicrobial MIC, broth microdilution; assay type: cell-based

MIC [2] [µg/mL] | Structure (SMILES) | MIC [1] [µg/mL]
 | C[C@@H]1C[C@@H]([C@H](O)CC2CC(=O)NC(=O)C2)C(=O)[C@@H](C)C1 [Cycloheximide] | < 201
< 32 | CC(=O)OCC1=C(C(=O)O)N2C(=O)[C@@H](NC(=O)Cc3cccs3)[C@H]2SC1 [Cephalothin] | 
